Assay results taken from patent US10899756B2, “Phosphodiesterase inhibitors and uses thereof” (The Trustees of Columbia University in the City of New York, priority 2013, dated 2021).
Read-outs that look alike come from different tables or passages of the source.

Legend:
APP/PS1 mice [1] = assay: 2-day radial arm water maze (reference memory); assay type: in vivo
Protocol: The radial arm water maze task, a hybrid of the classic Morris Water Maze and the radial arm land maze, was performed as described in J. Alamed, D. M. Wilcock, D. M. Diamond, M. N. Gordon, D. Morgan, Two-day radial-arm water maze learning and memory task; robust resolution of amyloid-related memory deficits in transgenic mice, Nat. Prot. 1 (2006) 1671-1679, herein incorporated by reference in its entirety. The mouse had to swim in 6 alleys (arms) radiating from a central area until it found a hidden (submerged) platform at the end of one of the arms, based on visual cues placed in the room. The first day of the protocol was a training day on which mice were trained to identify the platform location by alternating between a visible and a hidden platform in a goal arm. The final 3 trials on that day and all 15 trials on day 2 used a hidden escape platform to force mice to use spatial cues to identify the location of the goal arm. […] The number of incorrect arm entries (entries to arms with no platform) was counted. […] Failure to select an arm after 15 sec was counted as an error and the mouse was returned to the start arm. […] For data analysis, averages for each mouse were calculated using blocks of 3 trials. […]

APP/PS1 mice [2] = assay: Contextual fear conditioning (fear memory); assay type: in vivo
Protocol: Fear conditioning was assessed as described in B. Gong, O. V. Vitolo, F. Trinchese, S. Liu, M. Shelanski, O. Arancio, Persistent improvement in synaptic and cognitive functions in an Alzheimer mouse model after rolipram treatment, J. Clin. Invest. 114 (2004) 1624-1634; F. Trinchese, S. Liu, F. Battaglia, S. Walter, P. M. Mathews, O. Arancio, Progressive age-related development of Alzheimer-like pathology in APP/PS1 mice, Ann. Neurol. 55 (2004) 801-814; and B. Gong, Z. Cao, P. Zheng, O. V. Vitolo, S. Liu, A. Staniszewski, D. Moolman, H. Zhang, M. Shelanski, O. Arancio, Ubiquitin hydrolase Uch-L1 rescues beta-amyloid-induced decreases in synaptic function and contextual memory, Cell 126 (2006) 775-788; each herein incorporated by reference in its entirety. […] Freezing behavior, defined as the absence of movements except for respiratory excursions, was scored using Freezeview software (Med Associates, St. Albans, Vt.). Contextual fear learning was evaluated 24 hrs after training by measuring freezing responses for 5 min in the same chamber where the mice were trained. Cued fear learning was evaluated 24 hrs after contextual testing. The mice were placed in a novel context for 2 min (pre-CS test), after which they were given a CS for 3 min (CS test), and freezing behavior was measured during the first 30 sec that mimic the CS-US conditioning and the remaining 2.5 min. […]

[3] = Acute toxicity study with histology; assay type: in vivo; conditions: 120 or 240 mg/kg, i.p.
Description: Brain, muscle, kidney, and liver were harvested from each mouse, and tissue from each organ was examined histologically by a board-certified pathologist for signs of toxicity.

[4] = tested on: LTP in hippocampal slices of APP/PS1 mice; assay: Long-term potentiation in hippocampal slices, compound through the bath perfusion; conditions: 50 nM bath perfusion
[5] = tested on: LTP in hippocampal slices of APP/PS1 mice; assay: Long-term potentiation in slices after 3 weeks daily i.p. treatment and 9-12 weeks without treatment; assay type: in vivo; conditions: 3 mg/kg/day i.p. for 3 weeks from 3 months of age, treatment stopped 9-12 weeks prior to testing
Protocol: Transverse hippocampal slices (400 μm) were cut with a tissue chopper (EMS, PA) and maintained in an interface chamber at 29° C. for 90 min prior to recording, as described in Vitolo et al, Proc. Natl. Acad. Sci. USA 2002, 13217-13221, herein incorporated by reference in its entirety. The extracellular bath solution consisted of 124.0 mM NaCl, 4.4 mM KCl, 1.0 mM Na2HPO4, 25.0 mM NaHCO3, 2.0 mM CaCl2, 2.0 mM MgSO4, and 10.0 mM glucose, continuously aerated with 95% O2/5% CO2 to a final pH of 7.4. Field extracellular postsynaptic responses (fEPSPs) were recorded by placing the stimulating and recording electrodes in CA1 stratum radiatum. […] Basal synaptic transmission was first assessed by plotting the stimulus voltages (V) against slopes of fEPSP to generate input-output relations. A 20-30 min baseline was first recorded every minute at an intensity that evoked a response at approximately 35% of the maximum evoked response. […] Responses were measured as fEPSP slopes expressed as percentage of baseline.
Slices from transgenic mice treated with the compound had 226.23%±6.72 potentiation compared to 164.12%±10.37 in slices from vehicle-treated transgenic mice (FIG. 3). Residual potentiation recorded during the last 5 minutes of a 2 hr recording following tetanic stimulation of the Schaffer collateral fibers at the CA3-CA1 connection.

[6] = Pharmacokinetic study, brain and plasma; assay type: in vivo, C57B16 mice; conditions: 25 mg/kg i.p., mice; for half-life: read-out: t½ (elimination half-life) (converted)
[7] = Metabolite formation (H versus D substitution); assay type: in vitro ADME; conditions: substitution of H with D; instead of three
APP/PS1 mice [8] = assay: Preliminary studies with sildenafil in APP/PS1 mice; assay type: in vivo; conditions: persist beyond the administration of the inhibitor
[9] = 3-4 month old APP/PS1 mice, 3 mg/kg i.p. for 3 weeks
[10] = APP/PS1 mice, 3 mg/kg/day i.p. for 3 weeks at 3-4 months, treatment stopped 9-12 weeks, examined at 6-7 months

Compound: COc1ccc(CNc2c3c(nc4ccc(C#N)cc24)CCN(C(C)=O)C3)cc1Cl [Compound H, 2-acetyl-10-[(3-chloro-4-methoxybenzyl)amino]-1,2,3,4-tetrahydrobenzo[b][1,6]naphthyridine-8-carbonitrile]
- errors in the last trial of the 2-day RAWM test (APP/PS1 mice [1]; [9]): 1 to 2 errors
- errors in the 2-day RAWM test (APP/PS1 mice [1]; [10]): ~1 error
- freezing, contextual fear memory 24 hrs after shock (APP/PS1 mice [2]; [9]): ~30%
- freezing, contextual memory (APP/PS1 mice [2]; [10]): ~40%
- brain sections, CD45 immunostain [3]: no signs of inflammation
- brain sections, GFAP immunostain [3]: no signs of gliosis
- brain sections, H&E [3]: did not show any signs of toxicity
- brain sections, LFB-PAS stain [3]: no signs of demyelination
- kidney sections, H&E staining [3]: no toxicity
- kidney sections, PAS staining [3]: did not show any abnormalities in the glomerular basement membrane
- kidney sections, trichrome staining [3]: no fibrosis
- liver sections, H&E staining [3]: did not show any signs of toxicity
- liver sections, trichrome stain [3]: no fibrosis or cirrhotic liver disease
- muscle sections, H&E [3]: no signs of toxicity
- muscle sections, trichrome stain [3]: no muscle fibrosis
- neurotoxicity in the brain [3]: no signs of neurotoxicity
- effect on potentiation in WT slices [4]: no effect
- residual potentiation (fEPSP slope, percentage of baseline) [5]: 226.23%±6.72
- t½ (elimination half-life) ([6]; Brain): 39 min
- t½ (elimination half-life) ([6]; Plasma): 64.2 min
- Cmax ([6]; male, C57B16, mouse, ip, Brain): 492 ng/g
- half-life ([6]; male, C57B16, mouse, ip, Brain): 39 min
- half-life ([6]; male, C57B16, mouse, ip, Plasma): 64.2 min

Compound: [2H]C([2H])(Nc1c2c(nc3ccc(C#N)cc13)CCN(C(C)=O)C2)c1ccc(OC)c(Cl)c1 [U]
- number of metabolites formed [7]: 1

Compound: CCCc1nn(C)c2c(=O)[nH]c(-c3cc(S(=O)(=O)N4CCN(C)CC4)ccc3OCC)nc12 [sildenafil]
- effects on synaptic and cognitive abnormalities (APP/PS1 mice [8]): prolonged beneficial effects
